# Where two headings read alike, the source gives them in different places.
# Biological target: T1, human AR (Homo sapiens, UniProt P10275)
# T1 construct: expressed in transfected cells; host or cells: COS-1 cells
# T1 sequence (P10275 1-920): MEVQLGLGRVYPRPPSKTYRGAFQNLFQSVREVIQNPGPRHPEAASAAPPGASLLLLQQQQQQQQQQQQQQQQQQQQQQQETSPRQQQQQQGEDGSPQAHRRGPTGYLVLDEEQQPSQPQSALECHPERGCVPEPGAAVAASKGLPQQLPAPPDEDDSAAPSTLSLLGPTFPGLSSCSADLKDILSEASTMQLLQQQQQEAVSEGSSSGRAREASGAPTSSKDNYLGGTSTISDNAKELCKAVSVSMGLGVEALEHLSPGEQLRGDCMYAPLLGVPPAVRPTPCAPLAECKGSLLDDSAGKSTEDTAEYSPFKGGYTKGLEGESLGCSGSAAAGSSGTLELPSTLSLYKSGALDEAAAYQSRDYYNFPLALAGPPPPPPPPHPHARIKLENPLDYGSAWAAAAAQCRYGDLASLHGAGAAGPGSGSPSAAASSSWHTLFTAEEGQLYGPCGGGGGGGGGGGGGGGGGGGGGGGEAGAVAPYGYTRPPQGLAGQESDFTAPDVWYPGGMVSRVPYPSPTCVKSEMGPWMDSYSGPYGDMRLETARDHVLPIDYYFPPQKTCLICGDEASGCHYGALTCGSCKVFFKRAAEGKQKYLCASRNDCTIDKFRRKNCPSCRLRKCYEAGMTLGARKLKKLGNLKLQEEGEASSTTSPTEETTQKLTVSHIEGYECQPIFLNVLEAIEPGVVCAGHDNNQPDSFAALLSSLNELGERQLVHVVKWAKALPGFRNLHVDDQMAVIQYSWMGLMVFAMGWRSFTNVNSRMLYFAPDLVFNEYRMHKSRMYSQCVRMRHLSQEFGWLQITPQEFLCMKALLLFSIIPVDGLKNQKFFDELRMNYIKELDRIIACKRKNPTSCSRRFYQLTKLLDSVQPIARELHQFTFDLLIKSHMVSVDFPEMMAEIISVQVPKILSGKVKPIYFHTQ
# Assay: IR Binding Assay: whole cell competitive binding of test compounds against 3H-DHT in COS-1 cells transfected with pRShAR
# Experimental: For the whole cell binding assay, COS-1 cells in 96-well microtiter plates including DMEM-10% FBS were transfected as described above with the following plasmid DNA: pRShAR (2 ng/well), pRS-β-Gal (50 ng/well) and pGEM (48 ng/well). Six hours after transfection, media was removed, the cells were washed with PBS and fresh media was added. The next day, the media was changed to DMEM-serum free to remove any endogenous ligand that might be complexed with the receptor in the cells.
# After 24 hours in serum-free media, either a saturation analysis to determine the Kd for tritiated dihydrotestosterone (^3H-DHT) on human AR or a competitive binding assay to evaluate the ability of test compounds to compete with ^3H-DHT for AR was performed. […] For the competitive binding assay, media including 1 nM ^3H-DHT and test compounds in concentrations ranging from 10^−10 to 10^−6 M were added to the cells. Three replicates were used for each sample. After three hours at 37° C., an aliquot of the total binding media at each concentration of ^3H-DHT was removed to estimate the amount of free ^3H-DHT. The remaining media was removed, the cells were washed three times with PBS to remove unbound ligand, and cells were lysed with a Triton X-100-based buffer. The lysates were assayed for amount of bound ^3H-DHT and β-Gal activity using a scintillation counter or spectrophotometer, respectively.
# For the saturation analyses, the difference between the total binding and the nonspecific binding, normalized by the β-Gal rate, was defined as specific binding. The specific binding was evaluated by Scatchard analysis to determine the Kd for ^3H-DHT. See e.g., D. Rodbard, “Mathematics and statistics of ligand assays: an illustrated guide” In: J. Langon and J. J. Clapp, eds., Ligand Assay, Masson Publishing U.S.A., Inc., New York, pp. 45-99, (1981), the disclosure of which is herein incorporated by reference. For the competition studies, the data was plotted as the amount of ^3H-DHT (% of control in the absence of test compound) remaining over the range of the dose-response curve for a given compound. […] The Ki values were determined by application of the Cheng-Prusoff equation to the IC50 values, where:
# [formula] After correcting for non-specific binding, IC50 values were determined. […] The IC50 value was determined graphically from a log-logit plot of the data. The Ki values were determined by application of the Cheng-Prusoff equation to the IC50 values, the labeled ligand concentration and the Kd of the labeled ligand. see e.g., Cheng, Y. C. and Prusoff, W. H. Biochem. Pharmacol. 22:3099 (1973).
SMILES,Ki [nM],"Ki (competition with 1 nM 3H-DHT, transfected COS-1 cells, 3 h at 37° C., Cheng-Prusoff from IC50, read-out: Ki) [nM]"
"Cc1c(-c2ncco2)n(CC(F)(F)F)c2ccc3[nH]c(=O)cc(Cl)c3c12 [Compound 257, 9-Chloro-1-methyl-2-(2-oxazolyl)-3-(2,2,2-trifluoroethyl)-3,6-dihydro-pyrrolo[3,2-f]-quinolin-7-one]",< 5,
"Cc1c(-c2ccc(F)cc2F)[nH]c2ccc3[nH]c(=O)cc(Cl)c3c12 [Compound 117, 9-Chloro-2-(2,4-difluorophenyl)-1-methyl-3,6-dihydro-pyrrolo[3,2-f]quinolin-7-one]",< 5,
"Cc1c(C)n(CC(O)C(F)(F)F)c2ccc3[nH]c(=O)cc(Cl)c3c12 (racemic) [Compound 231, (±)-9-Chloro-1,2-dimethyl-3-(3,3,3-trifluoro-2-hydroxy-propyl)-3,6-dihydro-pyrrolo[3,2-f]-quinolin-7-one]",< 5,
"Cc1c(C=O)c2c3c(Cl)cc(=O)[nH]c3ccc2n1CCO [Compound 192, 9-Chloro-3-(2-hydroxy-ethyl)-2-methyl-7-oxo-6,7-dihydro-3H-pyrrolo[3,2-f]quinoline-1-carbaldehyde]",> 10,
"Cc1c(-c2nccs2)n(CC(F)(F)C(F)(F)F)c2ccc3[nH]c(=O)cc(Cl)c3c12 [Compound 262, 9-Chloro-1-methyl-3-(2,2,3,3,3-pentafluoropropyl)-2-(1,3-thiazol-2-yl)-3,6-dihydro-pyrrolo[3,2-f]quinolin-7-one]",5 to 10,
"CCC1C(C)c2c(ccc3[nH]c(=O)cc(C(F)(F)F)c23)N1CCCC(F)(F)F (racemic) [Compound 181, (±)-2-Ethyl-1-methyl-3-(4,4,4-trifluorobutyl)-9-trifluoromethyl-1,2,3,6-tetrahydro-pyrrolo[3,2-f]quinolin-7-one]",5 to 10,
"Cc1c(C)n(CCOCCOCCO)c2ccc3[nH]c(=O)cc(C(F)(F)F)c3c12 [Compound 298, 3-{2-[2-(2-Hydroxy-ethoxy)-ethoxy]-ethyl}-1,2-dimethyl-9-trifluoromethyl-3,6-dihydro-pyrrolo[3,2-f]quinolin-7-one]",> 10,
"Cc1c(CO)n(CC(F)(F)F)c2ccc3[nH]c(=O)cc(C(F)(F)F)c3c12 [Compound 235, 2-Hydroxymethyl-1-methyl-3-(2,2,2-trifluoro-ethyl)-9-trifluoromethyl-3,6-dihydro-pyrrolo[3,2-f]-quinolin-7-one]",> 10,
"CCc1c(-c2cccs2)n(CC(F)(F)F)c2ccc3[nH]c(=O)cc(Cl)c3c12 [Compound 209, 9-Chloro-1-ethyl-2-thien-2-yl-3-(2,2,2-trifluoroethyl)-3,6-dihydro-pyrrolo[3,2-f]quinolin-7-one]",< 5,
"CCC1C(C)c2c(ccc3[nH]c(=O)cc(C(F)(F)F)c23)N1CC(F)(F)Cl (racemic) [Compound 178, (±)-3-(2-Chloro-2,2-difluoroethyl)-2-ethyl-1-methyl-9-trifluoromethyl-1,2,3,6-tetrahydro-pyrrolo[3,2-f]quinolin-7-one]",< 5,
"Cc1c(-c2ccccc2)n(CC(F)(F)F)c2ccc3[nH]c(=O)cc(Cl)c3c12 [Compound 187, 9-Chloro-1-methyl-2-phenyl-3-(2,2,2-trifluoroethyl)-3,6-dihydro-pyrrolo[3,2-f]quinolin-7-one]",< 5,
"CCC1C(C)c2c(ccc3[nH]c(=O)cc(Cl)c23)N1CC(F)(F)F (racemic) [Compound 128, (±)-9-Chloro-2-ethyl-1-methyl-3-(2,2,2-trifluoro-ethyl)-1,2,3,6-tetrahydro-pyrrolo[3,2-f]quinolin-7-one]",> 10,
"Cc1c(C)n(CC(O)CCl)c2ccc3[nH]c(=O)cc(C(F)(F)F)c3c12 (stereo not shown) [Compound 294, 3-(3-chloro-2-hydroxypropyl)-1,2-dimethyl-9-trifluoromethyl-3,6-dihydro-pyrrolo[3,2-f]-quinolin-7-one]",< 5,
"Cc1c(C)n(CC(O)CO)c2ccc3[nH]c(=O)cc(C(F)(F)F)c3c12 (stereo not shown) [Compound 293, 3-(2,3-dihydroxypropyl)-1,2-dimethyl-9-trifluoromethyl-3,6-dihydro-pyrrolo[3,2-f]-quinolin-7-one]",> 10,
"CCc1c(C)c2c3c(Cl)cc(=O)[nH]c3ccc2n1CC(O)CO (stereo not shown) [Compound 297, 9-Chloro-3-(2,3-dihydroxypropyl)-2-ethyl-1-methyl-3,6-dihydro-pyrrolo[3,2-f]-quinolin-7-one]",> 10,
"Cc1c(C)n(CC(O)CO)c2ccc3[nH]c(=O)cc(Cl)c3c12 (stereo not shown) [Compound 290, 9-Chloro-3-(2,3-dihydroxypropyl)-1,2-dimethyl-3,6-dihydro-pyrrolo[3,2-f]-quinolin-7-one]",> 10,
"C=C(C)Cn1c(C)c(C)c2c3c(C(F)(F)F)cc(=O)[nH]c3ccc21 [Compound 237, 1,2-Dimethyl-3-(2-methyl-allyl)-9-trifluoromethyl-3,6-dihydro-pyrrolo[3,2-f]quinolin-7-one]",< 5,
"CC(=O)OCCCn1c(C)c(C)c2c3c(C(F)(F)F)cc(=O)[nH]c3ccc21 [Compound 250, 3-(3-Acetoxypropyl)-1,2-dimethyl-9-trifluoromethyl-3,6-dihydro-pyrrolo[3,2-f]quinolin-7-one]",< 5,
"COc1ccc(C2C(C)c3c(ccc4[nH]c(=O)cc(Cl)c34)N2CC(F)(F)F)cc1 (racemic) [Compound 148, (±)-9-Chloro-2-(4-methoxy-phenyl)-1-methyl-3-(2,2,2-trifluoroethyl)-1,2,3,6-tetrahydro-pyrrolo[3,2-f]quinolin-7-one]",5 to 10,
"CCc1c(C)c2c3c(Cl)cc(=O)[nH]c3ccc2n1CC(O)C(F)(F)F (racemic) [Compound 232, (±)-9-Chloro-2-ethyl-1-methyl-3-(3,3,3-trifluoro-2-hydroxy-propyl)-3,6-dihydro-pyrrolo[3,2-f]quinolin-7-one]",< 5,
"Cc1c(-c2cccs2)[nH]c2ccc3[nH]c(=O)cc(Cl)c3c12 [Compound 120, 9-Chloro-1-methyl-2-thien-2-yl-3,6-dihydro-pyrrolo[3,2-f]quinolin-7-one]",,> 10
"CCc1c(-c2ccccc2)n(CC(F)(F)F)c2ccc3[nH]c(=O)cc(Cl)c3c12 [Compound 203, 9-Chloro-1-ethyl-2-phenyl-3-(2,2,2-trifluoroethyl)-3,6-dihydro-pyrrolo[3,2-f]quinolin-7-one]",< 5,
"CCCN1c2ccc3[nH]c(=O)cc(Cl)c3c2C(C)C1C (racemic) [Compound 137, (±)-9-Chloro-1,2-dimethyl-3-propyl-1,2,3,6-tetrahydro-pyrrolo[3,2-f]quinolin-7-one]",< 5,
"Cc1c(C)n(CC(F)(F)F)c2ccc3[nH]c(=O)cc(Cl)c3c12 [Compound 184, 9-Chloro-1,2-dimethyl-3-(2,2,2-trifluoroethyl)-3,6-dihydro-pyrrolo[3,2-f]quinolin-7-one]",< 5,
"CC1c2c(ccc3[nH]c(=O)cc(Cl)c23)N(CC(F)(F)F)C1c1ccccc1 (racemic) [Compound 130, (±)-9-Chloro-1-methyl-2-phenyl-3-(2,2,2-trifluoro-ethyl)-1,2,3,6-tetrahydro-pyrrolo[3,2-f]-quinolin-7-one]",5 to 10,
